Earlier results in patent US20260199417A1, “OPHTHALMIC FORMULATION FOR TOPICAL USE CONTAINING HELENALIN, 11A,13-DIHYDRO HELENALIN AND FLAVONOIDS FROM ARNICA MONTANA EXTRACT AND SODIUM HYALURONATE, AND USE THEREOF BY HUMANS TO TREAT DRY EYE SYNDROME” (CENTRO DE RETINA MÉDICA Y QUIRÚRGICA, S.C., priority 2022, published 2026).

Tested on: NF kappa-B
Conditions: T cells, B cells, and epithelial cells

Compound	Activation of NF kappa-B
C[C@@H]1C[C@H]2OC(=O)[C@@H](C)[C@H]2[C@H](O)[C@]2(C)C(=O)C=C[C@@H]12 [11-α, 13-dihydrohelenalin]	inhibited
C=C1C(=O)O[C@@H]2C[C@@H](C)[C@@H]3C=CC(=O)[C@@]3(C)[C@@H](O)[C@H]12 [helenalin]	inhibited
